Experiments:
[1] = molecular target: GAPDH of T. brucei (Trypanosoma brucei brucei, UniProt P22512); test: Enzymatic inhibition of GAPDH (T. brucei); type: biochemical
[2] = tested on: Trypanosoma brucei brucei bloodstream form (strain 427); test: Antitrypanosomal assay (LILIT, Alamar Blue, 72 h) on bloodstream forms; type: cell-based; conditions: for ED50, growth of Trypanosoma brucei (strain 427): bloodstream form, 72 h incubation, Alamar Blue
Experimental: (§1) Trypanosoma brucei brucei (strain 427) bloodstream forms were cultured in HMI-9 medium containing 10% heat-inactivated. The mammalian fibroblast cell line MRC-5 was grown in DMEM (Gibco) supplemented with 10% heat-inactivated FBS and extra glutamine. Cells were grown at 37 °C in humidified incubators in an atmosphere of 5% CO2 [13].
(§2) The assay performed, the long incubation low inoculation test (LITIT), was previously described by Räz et al., 1997 [14] with minor modifications by Baltz et al., 1985 [15]. To evaluate the selectivity of the in vitro antitrypanosomal activity, in vitro cytotoxicity tests were also performed. The same general method was used in order to facilitate the comparison.
(§3) The compounds were initially dissolved in DMSO at a concentration of 20 mg/ml and diluted with the medium. Series of dilution were done in 96-well plates; each dilution was tested in duplicate. Cells in suspension were thereafter added to each well at a density such as, after 72 h of incubation, in control wells the culture reached the end of logarithmic growth phase (T. brucei), or adhesive cells have formed a confluent monocellular film (mammal cells MRC-5). The highest concentration of DMSO was 0.5%. After 72 h of incubation, Alamar Blue, a marker of cell viability, was added in each well and fluorescence was quantified after a total incubation time of 76 h at an excitation wavelength of 530 nm and at an emission wavelength of 590 nm. ED50 values were calculated by linear interpolation. Assays with commercial drugs were also carried out in order to have reference values. All results represent average values obtained in at least three independent experiments, each experiment comprising a duplicate set of tests.

[3] = molecular target: PGI of T. brucei (Trypanosoma brucei brucei, UniProt P13377); test: Enzymatic inhibition of glycolytic enzyme PGI (T. brucei); type: biochemical; conditions: for Ki’ PGI of T. brucei: binding to enzyme-substrate (F6P/PGI) complex
[4] = molecular target: rabbit muscle pyruvate kinase (PyK) (Oryctolagus cuniculus, UniProt P11974); test: Enzymatic inhibition of PyK (rabbit muscle); type: biochemical
[5] = molecular target: PyK of Leishmania mexicana (Leishmania mexicana, UniProt Q27686); test: Enzymatic inhibition of PyK (L. mexicana); type: biochemical
[6] = tested on: MRC-5 mammalian cells (fibroblasts); test: Cytotoxicity assay (Alamar Blue, 72 h) on mammalian fibroblasts; type: cell-based; conditions: 72 h incubation
Experimental: as §1, §2, §3

[7] = molecular target: T1, PGI Rabbit muscle (Oryctolagus cuniculus, UniProt Q9N1E2); test: Enzymatic inhibition of PGI (rabbit muscle); type: biochemical; conditions: n.i. = no inhibition observed at 50 μM
T1 construct: Rabbit muscle; from tissue; host or cells: rabbit muscle
Excerpt: Tab. 3. Enzymatic inhibition (IC50, μM) | column: PGI / Rabbit muscle

[8] = tested on: MRC-5 mammalian cells (fibroblasts); design: method as in PMID 17637068; conditions: cited from earlier work
[9] = molecular target: T2, GAPDH Rabbit muscle (Oryctolagus cuniculus, UniProt P46406); test: Enzymatic inhibition of GAPDH (rabbit muscle); type: biochemical; conditions: n.i. = no inhibition observed at 50 μM
T2 construct: Rabbit muscle; from tissue; host or cells: rabbit muscle
Excerpt: Tab. 3. Enzymatic inhibition (IC50, μM) | column: GAPDH / Rabbit muscle

[10] = tested on: Trypanosoma brucei brucei bloodstream form (strain 427); design: method as in PMID 17637068; conditions: cited from earlier work
[11] = n.i. = no inhibition observed at 50 μM

Chain of rabbit muscle pyruvate kinase (PyK) (P11974 whole entry): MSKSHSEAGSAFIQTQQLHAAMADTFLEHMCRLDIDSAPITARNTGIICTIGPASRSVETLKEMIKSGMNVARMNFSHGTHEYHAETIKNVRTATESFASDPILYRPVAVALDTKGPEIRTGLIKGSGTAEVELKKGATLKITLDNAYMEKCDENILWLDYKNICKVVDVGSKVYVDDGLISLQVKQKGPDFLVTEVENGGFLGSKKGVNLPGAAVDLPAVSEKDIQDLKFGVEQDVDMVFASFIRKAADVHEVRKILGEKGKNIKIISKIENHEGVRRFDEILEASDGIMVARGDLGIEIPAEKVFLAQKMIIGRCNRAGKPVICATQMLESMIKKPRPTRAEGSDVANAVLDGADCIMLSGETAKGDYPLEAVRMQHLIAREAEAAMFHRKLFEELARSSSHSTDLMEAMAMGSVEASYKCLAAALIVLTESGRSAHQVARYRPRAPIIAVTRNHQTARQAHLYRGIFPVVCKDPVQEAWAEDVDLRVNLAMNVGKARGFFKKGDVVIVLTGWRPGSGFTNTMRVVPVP
Chain of PGI of T. brucei (P13377 whole entry): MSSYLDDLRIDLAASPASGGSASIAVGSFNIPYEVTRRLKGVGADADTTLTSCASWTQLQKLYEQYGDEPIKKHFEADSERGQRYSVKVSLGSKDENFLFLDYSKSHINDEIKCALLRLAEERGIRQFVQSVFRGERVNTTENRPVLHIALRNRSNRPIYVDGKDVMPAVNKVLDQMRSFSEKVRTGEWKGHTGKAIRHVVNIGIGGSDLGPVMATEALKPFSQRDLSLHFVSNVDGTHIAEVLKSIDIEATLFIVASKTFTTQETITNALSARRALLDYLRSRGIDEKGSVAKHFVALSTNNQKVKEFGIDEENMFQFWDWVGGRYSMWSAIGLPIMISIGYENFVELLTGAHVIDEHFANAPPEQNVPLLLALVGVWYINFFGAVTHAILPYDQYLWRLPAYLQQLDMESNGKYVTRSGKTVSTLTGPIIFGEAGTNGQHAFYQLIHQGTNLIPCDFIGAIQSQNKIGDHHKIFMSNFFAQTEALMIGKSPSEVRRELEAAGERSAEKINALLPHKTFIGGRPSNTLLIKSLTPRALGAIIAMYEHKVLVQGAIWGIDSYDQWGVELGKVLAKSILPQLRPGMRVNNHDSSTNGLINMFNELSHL
Chain of PyK of Leishmania mexicana (Q27686 whole entry): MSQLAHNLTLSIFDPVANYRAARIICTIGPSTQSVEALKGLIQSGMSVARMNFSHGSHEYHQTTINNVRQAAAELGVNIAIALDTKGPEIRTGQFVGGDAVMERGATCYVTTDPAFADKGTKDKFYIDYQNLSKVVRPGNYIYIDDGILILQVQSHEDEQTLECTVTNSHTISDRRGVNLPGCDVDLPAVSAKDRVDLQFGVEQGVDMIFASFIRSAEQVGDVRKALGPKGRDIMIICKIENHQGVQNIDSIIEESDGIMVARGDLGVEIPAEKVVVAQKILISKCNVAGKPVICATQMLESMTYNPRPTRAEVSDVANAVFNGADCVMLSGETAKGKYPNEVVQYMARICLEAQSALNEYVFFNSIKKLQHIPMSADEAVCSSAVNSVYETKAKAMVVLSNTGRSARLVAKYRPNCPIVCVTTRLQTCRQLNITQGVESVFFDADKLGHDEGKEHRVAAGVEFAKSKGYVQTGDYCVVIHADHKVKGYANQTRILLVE
Chain of GAPDH of T. brucei (P22512 whole entry): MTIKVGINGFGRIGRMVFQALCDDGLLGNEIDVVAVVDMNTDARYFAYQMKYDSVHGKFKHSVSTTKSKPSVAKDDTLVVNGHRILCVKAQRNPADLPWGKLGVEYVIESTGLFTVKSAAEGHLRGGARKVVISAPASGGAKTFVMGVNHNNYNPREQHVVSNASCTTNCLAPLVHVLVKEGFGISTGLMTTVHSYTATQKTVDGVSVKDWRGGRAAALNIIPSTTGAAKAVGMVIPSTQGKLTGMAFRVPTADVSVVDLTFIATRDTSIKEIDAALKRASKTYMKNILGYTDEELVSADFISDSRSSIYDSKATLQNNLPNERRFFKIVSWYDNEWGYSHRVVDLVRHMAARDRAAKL
T2 sequence (P46406 whole entry): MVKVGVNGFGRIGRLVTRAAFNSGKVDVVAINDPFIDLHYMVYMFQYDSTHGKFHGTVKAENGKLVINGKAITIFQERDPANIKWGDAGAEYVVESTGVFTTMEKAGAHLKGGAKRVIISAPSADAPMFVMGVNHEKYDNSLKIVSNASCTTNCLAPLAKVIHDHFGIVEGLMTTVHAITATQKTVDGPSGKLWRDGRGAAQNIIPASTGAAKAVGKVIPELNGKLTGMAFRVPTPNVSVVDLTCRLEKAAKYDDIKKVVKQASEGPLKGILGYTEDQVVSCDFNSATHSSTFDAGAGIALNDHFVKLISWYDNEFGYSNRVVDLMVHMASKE

In the case of `C=C(C)[C@@H](CC)CC(O)[C@@H](C)[C@H]1CC[C@H]2[C@@H]3CC=C4C[C@@H](O)CC[C@]4(C)[C@H]3CC[C@]12C` (stereo partly drawn) [Compound 1, (3β,24S)-Stigmasta-5,25-diene-3,22-diol], the IC50 [1] is reported as 30 ± 10 µM, the “ED50, growth of Trypanosoma brucei (strain 427)” value [2] is reported as 1.56 µM and the “fold more potent than compound 2 (ED50, T. brucei brucei growth)” value ([2]; ratio of ED50 values) is reported as 86 fold. For the same compound, the melting point was 166 to 168 °C, the IC50 [3] was 30 ± 10 µM and the “affinity for F6P/PGI complex relative to affinity of natural substrate (F6P) for PGI” value ([3]; kinetic studies) was 76 fold. For the same compound, the “type of inhibition of PGI of T. brucei” value ([3]; kinetic studies) was “uncompetitive inhibitor”, the “Ki’ PGI of T. brucei” value ([3]; kinetic studies) was 3 ± 1 µM and the “Ki’ PyK of rabbit muscle” value ([4]; kinetic studies) was 26 ± 3 µM. For the same compound, the “type of inhibition of PyK of rabbit muscle” value ([4]; kinetic studies) was “uncompetitive inhibitor”, the IC50 [5] was 30 ± 5 µM and the Ki [5] was 24 ± 5 µM. For the same compound, the “Ki’ PyK of Leishmania mexicana” value ([5]; kinetic studies) was 65 ± 10 µM, the “type of inhibition of PyK of Leishmania mexicana” value ([5]; kinetic studies) was “mixed inhibitor” and the “ED50, Mammalian cells (MRC-5 fibroblasts)” value (“ED50, Mammalian cells” for short) [6] was 1.12 µM.

In the case of `C=C(C)[C@@H](CC)CC[C@@H](C)[C@H]1CC[C@H]2[C@@H]3CC=C4C[C@@H](O)CC[C@]4(C)[C@H]3CC[C@]12C` [Compound 2, (3β,24S)-Stigmasta-5,25-dien-3-ol], the “IC50 PGI Rabbit muscle” value [7] is listed as “n.i”, the “toxicity to mammalian cells (known)” value [8] is listed as “non toxic to mammalian cells” and the “IC50 GAPDH T. brucei” value [1, 11] is listed as “n.i”. For the same compound, the “ED50, growth of Trypanosoma brucei (strain 427)” value [2] was 134.34 µM, the “IC50 GAPDH Rabbit muscle” value [9] was “n.i” and the IC50 [3] was 45 ± 10 µM. The Ki [3] was 10 ± 2 µM, the “type of inhibition of PGI of T. brucei” value ([3]; kinetic studies) was “mixed inhibitor” and the “Ki’ PGI of T. brucei” value ([3]; kinetic studies) was 68 ± 5 µM. The “IC50 PyK Rabbit muscle” value [4, 11] was “n.i”, the “IC50 PyK L. mexicana” value [5, 11] was “n.i” and the “ED50, Mammalian cells” value [6] was “no effect”. The “ED50, Mammalian cells” value ([6]; listed as compound 2) was “non toxic on mammalian cells” and the “antitrypanosomal activity (known)” value [10] was “weak antitrypanosomal activity”.

Source: PMC3097502, “Antitrypanosomal and Cytotoxic Activities of 22-Hydroxyclerosterol, a New Sterol from Allexis cauliflora (Violaceae)” (Scientia Pharmaceutica, 2011)
